“Also recorded” adds a separate entry of the source.
Tests used:
female 129S6/SvEv mice [1] = test: Forced swim test (FST), immobility time, after stress
female 129S6/SvEv mice [2] = test: Forced swim test after 10-day chronic immobilization stress (CIS); assay type: in vivo, mouse; settings: 0.025 mg/kg, 1 week prophylactic drug
Protocol: The CIS procedure induces a depressive-like phenotype in test subjects and has both predictive and face validity (54). Here, we used an adapted protocol from Ramirez et al. (55).
As previously tested in male mice (18), we validated our findings in a model of chronic stress. […] Drug dosages were chosen based on results from FIG. 1 and used for the remainder of the project unless otherwise specified. One week later, a 10-day CIS protocol was administered. Subsequently, mice were tested in the FST.

[3] = Sal vs. (2R,6R)-HNK (0.025), Fisher's PLSD, 3 day prophylactic drug/Forced Swim Test Day 1
[4] = Same drug, Sham vs. ovariectomized, 1 week prophylactic drug, Forced Swim Test Day 2, K (10), (2R,6R)-HNK (0.025), FIG. 5C
[5] = Sham-operated females, 1 week prophylactic drug, Forced Swim Test Day 2, K (10), (2R,6R)-HNK (0.025), FIG. 5C

`N[C@@]1(c2ccccc2Cl)CCC[C@@H](O)C1=O` [(2R,6R)-HNK, (2R,6R)-hydroxynorketamine] was tested, and the “*, Immobility Time (min 4)” value (female 129S6/SvEv mice [1]; [3]) was “** (** p<0.01)”, the “*, Immobility Time (min 5)” value (female 129S6/SvEv mice [1]; [3]) was “** (** p<0.01)” and the “*, Immobility Time (min 6)” value (female 129S6/SvEv mice [1]; [3]) was “** (** p<0.01)”. For the same compound, the “*, Immobility Time Average (min 3-6)” value (female 129S6/SvEv mice [1]; [3]) was “** (** p<0.01)”, the “p, Immobility Time (min 1)” value (female 129S6/SvEv mice [1]; [3]) was under 0.0001 and the “p, Immobility Time (min 2)” value (female 129S6/SvEv mice [1]; [3]) was 0.0005. The “p, Immobility Time (min 3)” value (female 129S6/SvEv mice [1]; [3]) was 0.0073, the “p, Immobility Time (min 4)” value (female 129S6/SvEv mice [1]; [3]) was 0.0039 and the “p, Immobility Time (min 5)” value (female 129S6/SvEv mice [1]; [3]) was 0.0006. The “p, Immobility Time (min 6)” value (female 129S6/SvEv mice [1]; [3]) was 0.0006, the “p, Immobility Time Average (min 3-6)” value (female 129S6/SvEv mice [1]; [3]) was 0.0008 and the “p, Immobility Time (min 1)” value (female 129S6/SvEv mice [1]; Sal vs. (2R,6R)-HNK (0.025), Fisher's PLSD, Antidepressant drug/Forced Swim Test Day 2) was 0.2184. The “p, Immobility Time Average (min 3-6)” value (female 129S6/SvEv mice [1]; Sal vs. (2R,6R)-HNK (0.025), t-test, 24 hour prophylactic drug/Forced Swim Test Day 1) was 0.5779, the “p, Fisher's PLSD, Immobility Time Average (min 3-6), Sham drug vs. OVX drug” value (female 129S6/SvEv mice [1]; [4]) was 0.0476 and the “significance (*), Fisher's PLSD, Immobility Time Average (min 3-6), Sham drug vs. OVX drug” value (female 129S6/SvEv mice [1]; [4]) was “* (* p<0.05)”. The “p, Fisher's PLSD, Immobility Time Average (min 3-6), Sham Sal vs. Sham drug” value (female 129S6/SvEv mice [1]; [5]) was 0.0099, the “significance (*), Fisher's PLSD, Immobility Time Average (min 3-6), Sham Sal vs. Sham drug” value (female 129S6/SvEv mice [1]; [5]) was “** (** p<0.01)” and the “Immobility in the FST (Day 1 and Day 2) vs saline” value (female 129S6/SvEv mice [1]; drug administered 1 hour after 3-shock CFC stressor, female mice) was “did not reduce immobility levels; also recorded: Neither (R,S)-ketamine nor (2R,6R)-HNK significantly affected immobility time”. For the same compound, the “Prophylactically effective dose in females” value (female 129S6/SvEv mice [1]; female mice, 1 week before stressor) was 0.025 mg/kg, the “Immobility in the FST vs saline” value (female 129S6/SvEv mice [1]; ovariectomized mice with cyclic E2 and P4 replacement, drug 1 week before CFC) was “significantly less immobile compared to control saline mice; also recorded: significantly reduced immobility” and the “Prophylactic efficacy against stress-induced depressive-like behavior” value (female 129S6/SvEv mice [1]; single injection 1 week before stressor, female mice) was “significantly reduced stress-induced depressive-like behavior; also recorded: significantly decreased stress-induced depressive-like behavior; also recorded: is prophylactic against depressive-like behavior; also recorded: prophylactic against stress-induced depressive-like behavior; also recorded: effective prophylactics against a variety of stressors; also recorded: protect against stress-induced depressive-like behavior”. The “* (significance), Sal vs. drug, Fisher's PLSD: Immobility Time (min 1), Forced Swim Test Day 1” value (female 129S6/SvEv mice [2]) was “*** (*** p<0.0001)”, the “* (significance), Sal vs. drug, Fisher's PLSD: Immobility Time (min 1), Forced Swim Test Day 2” value (female 129S6/SvEv mice [2]) was “** (** p<0.01)” and the “* (significance), Sal vs. drug, Fisher's PLSD: Immobility Time (min 2), Forced Swim Test Day 1” value (female 129S6/SvEv mice [2]) was “*** (*** p<0.0001)”. For the same compound, the “* (significance), Sal vs. drug, Fisher's PLSD: Immobility Time (min 3), Forced Swim Test Day 1” value (female 129S6/SvEv mice [2]) was “*** (*** p<0.0001)”, the “* (significance), Sal vs. drug, Fisher's PLSD: Immobility Time (min 4), Forced Swim Test Day 1” value (female 129S6/SvEv mice [2]) was “*** (*** p<0.0001)” and the “* (significance), Sal vs. drug, Fisher's PLSD: Immobility Time (min 5), Forced Swim Test Day 1” value (female 129S6/SvEv mice [2]) was “*** (*** p<0.0001)”. The “* (significance), Sal vs. drug, Fisher's PLSD: Immobility Time (min 5), Forced Swim Test Day 2” value (female 129S6/SvEv mice [2]) was “* (* p<0.05)”, the “* (significance), Sal vs. drug, Fisher's PLSD: Immobility Time (min 6), Forced Swim Test Day 1” value (female 129S6/SvEv mice [2]) was “*** (*** p<0.0001)” and the “* (significance), Sal vs. drug, Fisher's PLSD: Immobility Time (min 6), Forced Swim Test Day 2” value (female 129S6/SvEv mice [2]) was “** (** p<0.01)”. For the same compound, the “* (significance), Sal vs. drug, Fisher's PLSD: Immobility Time Average (min 3-6), Forced Swim Test Day 2” value (female 129S6/SvEv mice [2]) was “* (* p<0.05)”, the “* (significance), Sal vs. drug, Fishers PLSD: Immobility Time Average (min 1-6), Forced Swim Test Day 1” value (female 129S6/SvEv mice [2]) was “*** (*** p<0.0001)” and the “p, Sal vs. drug, Fisher's PLSD: Immobility Time (min 1), Forced Swim Test Day 1” value (female 129S6/SvEv mice [2]) was under 0.0001. For the same compound, the “p, Sal vs. drug, Fisher's PLSD: Immobility Time (min 1), Forced Swim Test Day 2” value (female 129S6/SvEv mice [2]) was 0.0073, the “p, Sal vs. drug, Fisher's PLSD: Immobility Time (min 2), Forced Swim Test Day 1” value (female 129S6/SvEv mice [2]) was under 0.0001 and the “p, Sal vs. drug, Fisher's PLSD: Immobility Time (min 2), Forced Swim Test Day 2” value (female 129S6/SvEv mice [2]) was 0.8092. For the same compound, the “p, Sal vs. drug, Fisher's PLSD: Immobility Time (min 3), Forced Swim Test Day 1” value (female 129S6/SvEv mice [2]) was under 0.0001, the “p, Sal vs. drug, Fisher's PLSD: Immobility Time (min 4), Forced Swim Test Day 1” value (female 129S6/SvEv mice [2]) was under 0.0001 and the “p, Sal vs. drug, Fisher's PLSD: Immobility Time (min 5), Forced Swim Test Day 1” value (female 129S6/SvEv mice [2]) was under 0.0001. The “p, Sal vs. drug, Fisher's PLSD: Immobility Time (min 5), Forced Swim Test Day 2” value (female 129S6/SvEv mice [2]) was 0.0328, the “p, Sal vs. drug, Fisher's PLSD: Immobility Time (min 6), Forced Swim Test Day 1” value (female 129S6/SvEv mice [2]) was under 0.0001 and the “p, Sal vs. drug, Fisher's PLSD: Immobility Time (min 6), Forced Swim Test Day 2” value (female 129S6/SvEv mice [2]) was 0.0069. For the same compound, the “p, Sal vs. drug, Fisher's PLSD: Immobility Time Average (min 3-6), Forced Swim Test Day 2” value (female 129S6/SvEv mice [2]) was 0.0177 and the “p, Sal vs. drug, Fishers PLSD: Immobility Time Average (min 1-6), Forced Swim Test Day 1” value (female 129S6/SvEv mice [2]) was under 0.0001.

From patent US11491120B2, “Pharmacological prophylactics against stress-induced affective disorders in females” (The Trustees of Columbia University in the City of New York, priority 2017, dated 2022)
